Where two headings read alike, the source gives them in different places.

Experimental findings from US8809550B2, “Androgen receptor antagonists and uses thereof” (priority 2009, dated 2014) are described below.

The subject of series [1] is Prostate-specific Antigen (PSA) production in 22RV1 cells. Put plainly: PSA assay: inhibition of PSA production in 22RV1 cells (ELISA). The format is cell-based. The settings on record: Homo sapiens, 72 h, R1881 1 ng/ml, three days. As for the experimental part: (§1) PSA Assay (Inhibition Test of the Compound of the Present Invention on Prostate-Specific Antigen (PSA) Production in Various Prostate Cancer Cells)
Androgen dependent LNCaP and 22RV1 cells were purchased from the American Type Culture Collection (ATCC, Manassas, Va.). These cells were grown in RPMI 1640 medium supplemented with 10% fetal bovine serum (FBS), 100 U/mL penicillin, 100 μg/mL streptomycin, and 0.25 μg/mL amphotericin B. The cells were maintained at 37° C. and 5% CO2. LNCaP cells between passage 20 and 35, and 22RV1 cells between passage 30 and 50 were used for experiments. LNCaP is a hormone sensitive cell line, while 22RV1 is a hormone refractory prostate cancer cell line, which derived from a primary prostate tumor. This cell line was isolated from a xenograft (CWR22R-2152) that was serially propagated in mice after castration-induced regression and relapse of the parental, androgen-dependent CWR xenograft. For the PSA assay, human prostate cancer cells LNCaP or 22RV1 were seeded in a 96-well plate at a concentration of 5000 cells/100 μl/well. On the following day, Methyltrienolone (R1881, AR agonist) (final concentration 1 ng/ml), test compounds or bicalutamide (Casodex®, AstraZeneca) (final concentration 0.005 to 20 μM) were added. Three days after the addition, the concentration of PSA in the supernatant of the culture solution was measured by ELISA. ELISAs for human PSA in culture medium were performed using the ultra-sensitive assay procedure and reagents in the Active™ PSA assay kit (Diagnostic Systems Laboratories Inc., Webster, Tex.). Culture medium and standards (200 μl/well) were incubated in antibody-coated plates for 2 h at room temperature on a Titer plate shaker at 500-600 rpm. Wells were then washed five times. The HRP conjugate was diluted 1:20 with assay buffer, and 100 μl was added to all wells. The plates were incubated for 30 min at room temperature on the shaker and washed as before, and 100 μl TMB (3,3′,5,5′-tetramethylbenzidine, 0.4 g/l) was added. The plates were incubated for 10 min on the shaker, and the reaction was terminated with 100 μl stop solution. The plates were read using a plate reader at 450 nm with a 650 nm reference filter. PSA levels were normalized for differences in growth of LNCaP or 22RV1 cells following various treatments as determined by the MTS assay. IC50 of PSA was calculated based on a seven point assay (concentrations of tested compound) and expressed as micromolar (uM). […] ND means not determined
In general terms: An ELISA detects its analyte on a solid surface through an enzyme-linked reagent.

For a further series, the system named is LNCaP cells. The series is described as follows: Cell viability assay, LNCaP cells. The series is classed as cell-based. The settings on record: Homo sapiens, read-out: Inhibition of cell viability, LNCaP % inhibition at 2.5 uM. As for the experimental part: (§2) LNCaP and 22RV1 cells were maintained in RPMI 1640 medium supplemented with 10% fetal bovine serum (FBS), 100 U/mL penicillin, 100 μg/mL streptomycin, and 0.25 μg/mL amphotericin B, splitting cells when they reached 80-90% confluence. In order to test compounds, 10,000 cells/well were plated in 96 cell culture plates using 100 ul/well plating medium, cultured overnight at 37° C. in a cell culture incubator. After carefully remove plating medium, 80 ul/well of pre-warmed assay medium was added, followed by adding 10 ul/well test compounds or bicalutamide (final concentration from 20 uM to 0.1 uM), incubated at 37° C. for 30 minutes, then adding 10 ul/well freshly prepared Methyltrienolone (R1881, AR agonist) (final concentration 1 ng/ml) to each well, incubate at 37° C. for 48-hour. At the end of incubation, 20 μl MTT (2.5 mg/ml in PBS) was added to each well, and the cells were further incubated for 2 h at 37 C to allow a complete reaction between the dye and the enzyme mitochondrial dehydrogenase in the viable cells. After removal of the residual dye and medium, 100 μl dimethylsulfoxide was added to each well, and the absorbance at 570 nm was measured with an microplate reader. The fold induction over background by 1 nM R1881 in the absence of test compounds is standardized as 100% and experimental result is expressed as percentage of inhibition by testing compounds at 2.5 micromolar (uM).

In a further series the test system is 22RV1 cells. The series is described as follows: Cell viability assay, 22RV1 cells. To be noted: for cytotoxicity at 2.5 µM: Homo sapiens, read-out: Inhibition of cell viability, 22RV1 % inhibition at 2.5 uM. The series is classed as cell-based, human. As for the experimental part:
as §2

Series [2] concerns Prostate-specific Antigen (PSA) production in LNCaP cells. The series is described as follows: PSA assay: inhibition of PSA production in LNCaP cells (ELISA). The format is cell-based. To be noted: Homo sapiens; for IC50: 72 h, R1881 1 ng/ml, three days, seven point assay. The method, then:
as §1
Androgen dependent LNCaP and 22RV1 cells were purchased from the American Type Culture Collection (ATCC, Manassas, Va.). These cells were grown in RPMI 1640 medium supplemented with 10% fetal bovine serum (FBS), 100 U/mL penicillin, 100 μg/mL streptomycin, and 0.25 μg/mL amphotericin B. The cells were maintained at 37° C. and 5% CO2. LNCaP cells between passage 20 and 35, and 22RV1 cells between passage 30 and 50 were used for experiments. LNCaP is a hormone sensitive cell line, while 22RV1 is a hormone refractory prostate cancer cell line, which derived from a primary prostate tumor. This cell line was isolated from a xenograft (CWR22R-2152) that was serially propagated in mice after castration-induced regression and relapse of the parental, androgen-dependent CWR xenograft. For the PSA assay, human prostate cancer cells LNCaP or 22RV1 were seeded in a 96-well plate at a concentration of 5000 cells/100 μl/well. On the following day, Methyltrienolone (R1881, AR agonist) (final concentration 1 ng/ml), test compounds or bicalutamide (Casodex®, AstraZeneca) (final concentration 0.005 to 20 μM) were added. Three days after the addition, the concentration of PSA in the supernatant of the culture solution was measured by ELISA. ELISAs for human PSA in culture medium were performed using the ultra-sensitive assay procedure and reagents in the Active™ PSA assay kit (Diagnostic Systems Laboratories Inc., Webster, Tex.). Culture medium and standards (200 μl/well) were incubated in antibody-coated plates for 2 h at room temperature on a Titer plate shaker at 500-600 rpm. Wells were then washed five times. The HRP conjugate was diluted 1:20 with assay buffer, and 100 μl was added to all wells. The plates were incubated for 30 min at room temperature on the shaker and washed as before, and 100 μl TMB (3,3′,5,5′-tetramethylbenzidine, 0.4 g/l) was added. The plates were incubated for 10 min on the shaker, and the reaction was terminated with 100 μl stop solution. The plates were read using a plate reader at 450 nm with a 650 nm reference filter. PSA levels were normalized for differences in growth of LNCaP or 22RV1 cells following various treatments as determined by the MTS assay. IC50 of PSA was calculated based on a seven point assay (concentrations of tested compound) and expressed as micromolar (uM). Results on 22RV1 cells are shown as percent inhibition at 2 micromolar (uM). ND means not determined

The mark [3] stands for this setting: LNCaP cells, 2.5 uM, R1881 1 ng/ml, 48-hour.
The mark [4] stands for this setting: 22RV1 cells, 2.5 uM, R1881 1 ng/ml, 48-hour.

In the case of `CC(O)(CS(=O)(=O)c1ccc(F)cc1)C(=O)Nc1ccc(C#N)c(C(F)(F)F)c1` (stereo not shown) [Bicalutamide, bicalutamide, reference compound], the inhibition (in general, the percentage by which the read-out fell short of the control) at 2 µM in series [1] came to 18%. Besides, in the series on LNCaP cells (setting [3]), the cytotoxicity at 2.5 µM is 21%. In the series on 22RV1 cells (setting [4]), the “Inhibition of cell viability, 22RV1 % inhibition at 2.5 uM” value is on record as less than 10% and the cytotoxicity at 2.5 µM is less than 10%. Also, in series [2] (1 micromolar (summary text b205)), the inhibition at 1 µM stood at 34%. For the same compound, the IC50 (commonly the concentration needed to halve the response being measured) in series [2] amounted to 3100 nM.

In series [1], `CNC(=O)c1ccc(N2C(=S)N(c3ccc(C#N)cc3Cl)C(=O)C23CCC3)cc1F` [Example 1, 4-[7-(2-Chloro-4-cyano-phenyl)-8-oxo-6-thioxo-5,7-diaza-spiro[3.4]oct-5-yl]-2-fluoro-N-methyl-benzamide] gave an inhibition at 2 µM of 48%. Besides, the cytotoxicity at 2.5 µM in the series on LNCaP cells (LNCaP, 48 h) is 70%; in the series on 22RV1 cells (22Rv1, 48 h), 31%. In series [2], this compound registered an IC50 of 2400 nM.

For the compound `CNC(=O)c1ccc(N2C(=S)N(c3ccc(C#N)c(OC)c3)C(=O)C23CCC3)cc1F` [Example 2, 4-[7-(4-Cyano-3-methoxy-phenyl)-8-oxo-6-thioxo-5,7-diaza-spiro[3.4]oct-5-yl]-2-fluoro-N-methyl-benzamide], testing at 2 µM in series [1] gave an inhibition of 47%. For the same compound, the cytotoxicity at 2.5 µM was found to be 59% in the series with LNCaP cells (LNCaP, 48 h) and 41% in the series on 22RV1 cells (22Rv1, 48 h). The compound further showed an IC50 in series [2] of 450 nM.

For the compound `CNC(=O)c1ccc(N2C(=S)N(c3ccc(C#N)c(Cl)c3F)C(=O)C23CCC3)cc1F` [Example 8, 4-[7-(3-Chloro-4-cyano-2-fluoro-phenyl)-8-oxo-6-thioxo-5,7-diaza-spiro[3.4]oct-5-yl]-2-fluoro-N-methyl-benzamide], 2 µM produced 77% inhibition in series [1]. The cytotoxicity at 2.5 µM with LNCaP cells (LNCaP, 48 h) stood at 86%; in the series with 22RV1 cells (22Rv1, 48 h) it was 59%. Moreover, the 50% inhibitory concentration (IC50) in series [2] stood at 850 nM.

As for `CNC(=O)c1ccc(N2C(=S)N(c3ccc(C#N)c(C(F)(F)F)c3F)C(=O)C23CCC3)cc1F` [Example 10, 4-[7-(4-Cyano-2-fluoro-3-trifluoromethyl-phenyl)-8-oxo-6-thioxo-5,7-diaza-spiro[3.4]oct-5-yl]-2-fluoro-N-methyl-benzamide], the inhibition at 2 µM in series [1] amounted to 78%. For the same compound, the cytotoxicity at 2.5 µM amounted to 91% in the series with LNCaP cells (LNCaP, 48 h) and 69% in the series on 22RV1 cells (22Rv1, 48 h). In series [2], this compound returned an IC50 of 380 nM.

In series [1], `CNC(=O)c1ccc(N2C(=S)N(c3ccc(C#N)c(Cl)c3F)C(=O)C2(C)C)cc1F` [Example 11, 4-[3-(3-Chloro-4-cyano-2-fluoro-phenyl)-5,5-dimethyl-4-oxo-2-thioxo-imidazolidin-1-yl]-2-fluoro-N-methyl-benzamide] had an inhibition at 2 µM of 81%. For the same compound, the cytotoxicity at 2.5 µM with LNCaP cells (LNCaP, 48 h) was 85%; with 22RV1 cells (22Rv1, 48 h), 56%. The compound further had an IC50 in series [2] of 230 nM.

As to `CC1(C)C(=O)N(c2ccc(C#N)c(Cl)c2F)C(=S)N1c1ccc(C#N)cc1` [Example 18, 4-(4,4-Dimethyl-5-oxo-2-thioxo-3-p-cyanophenyl-imidazolidin-1-yl)-3-fluoro-2-chloro-benzonitrile], at 2 µM the inhibition in series [1] was 89%. The cytotoxicity at 2.5 µM was 91% in the series with LNCaP cells (LNCaP, 48 h) and 57% in the series with 22RV1 cells (22Rv1, 48 h). Besides, the IC50 in series [2] stood at 92 nM.

Consider `COc1c(C#N)ccc(N2C(=O)C(C)(C)N(c3ccc(F)cc3)C2=S)c1F` [Example 19, 3-Fluoro-4-[3-(4-fluoro-phenyl)-4,4-dimethyl-5-oxo-2-thioxo-imidazolidin-1-yl]-2-methoxy-benzonitrile], for which the inhibition at 2 µM in series [1] is 72%. Further, the cytotoxicity at 2.5 µM in the series on LNCaP cells (setting [3]) stood at 87%; in the series with 22RV1 cells (setting [4]), 63%. The compound further displayed an IC50 in series [2] of 290 nM.

In series [1], `COc1c(C#N)ccc(N2C(=O)C(C)(C)N(c3ccc(C)nc3)C2=S)c1F` [Example 20, 4-[4,4-Dimethyl-3-(6-methyl-pyridin-3-yl)-5-oxo-2-thioxo-imidazolidin-1-yl]-3-fluoro-2-methoxy-benzonitrile] yielded an inhibition at 2 µM of 69%. Moreover, the cytotoxicity at 2.5 µM in the series on LNCaP cells (LNCaP, 48 h) was found to be 68%; in the series with 22RV1 cells (22Rv1, 48 h), 44%. In series [2], 280 nM corresponded to half-maximal inhibition (IC50).

Regarding `Cc1ccc(N2C(=S)N(c3ccc(C#N)c(C#N)c3)C(=O)C2(C)C)cc1` [Example 24, 4-(4,4-Dimethyl-5-oxo-2-thioxo-3-p-tolyl-imidazolidin-1-yl)-phthalonitrile], the inhibition at 2 µM in series [1] was determined as 91%. Besides, the cytotoxicity at 2.5 µM in the series on LNCaP cells (LNCaP, 48 h) turned out to be 47%; in the series with 22RV1 cells (22Rv1, 48 h), 27%. In series [2], this compound showed a concentration for half-maximal inhibition (IC50) of 200 nM.

`COc1c(C#N)ccc(N2C(=O)C(C)(C)N(c3ccc(C#N)cc3)C2=S)c1F` [Example 32, 4-(4,4-Dimethyl-5-oxo-2-thioxo-3-p-cyanophenyl-imidazolidin-1-yl)-3-fluoro-2-methoxy-benzonitrile]: the inhibition at 2 µM in series [1] stood at 88%. Also, the cytotoxicity at 2.5 µM with LNCaP cells (setting [3]) was 87%; in the series with 22RV1 cells (setting [4]), 64%. In series [2], this compound displayed an IC50 of 120 nM.
